Data from publication PMC4890880 (ACS infectious diseases, 2016).
Read-outs that look alike come from different tables or passages of the source.

Legend:
[1] = tested on: Plasmodium berghei (Pb-Luc) exoerythrocytic-stage parasites; conditions: for normalised signal at concentration 10 (first series): concentration 10, first series of dose columns; for normalised signal at concentration 10 (second series): concentration 10, second series of dose columns; for IC50: read-out: PbLuc_IC50, Broad compounds; for normalized signal at concentration 10 / normalized signal at concentration 0.000508053 / normalized signal at concentration 0.00152416 / normalized signal at concentration 0.00457247 / normalized signal at concentration 0.0137174 / normalized signal at concentration 0.0411523 / normalized signal at concentration 0.123457 / normalized signal at concentration 0.37037 / normalized signal at concentration 1.11111 / normalized signal at concentration 3.33333: fraction of control
HepG2-A16-CD81EGFP cells = conditions: for IC50: read-out: Tox_IC50, HepG2 cytotoxicity
[2] = sheet "2nd round", dose response top concentration 10
[3] = sheet 2nd round, maximal inhibition in dose response

For `COc1ccc(NC(=O)N(C)C[C@H]2Oc3c(NC(=O)CCCCCC(=O)Nc4ccccc4N)cccc3C(=O)N([C@@H](C)CO)C[C@H]2C)cc1` [BRD-K03339938-001-01-9], the “normalised signal at concentration 0.000508053 (first series)” value [1] was 1.103, the “normalised signal at concentration 0.000508053 (second series)” value [1] was 1.02 and the “normalised signal at concentration 0.00152416 (first series)” value [1] was 0.9211. For the same compound, the “normalised signal at concentration 0.00152416 (second series)” value [1] was 0.7891, the “normalised signal at concentration 0.00457247 (first series)” value [1] was 0.9975 and the “normalised signal at concentration 0.00457247 (second series)” value [1] was 0.8582. The “normalised signal at concentration 0.0137174 (first series)” value [1] was 0.9216, the “normalised signal at concentration 0.0137174 (second series)” value [1] was 0.8637 and the “normalised signal at concentration 0.0411523 (first series)” value [1] was 0.9804. The “normalised signal at concentration 0.0411523 (second series)” value [1] was 0.9024, the “normalised signal at concentration 0.123457 (first series)” value [1] was 0.8136 and the “normalised signal at concentration 0.123457 (second series)” value [1] was 0.9499. The “normalised signal at concentration 0.37037 (first series)” value [1] was 0.9387, the “normalised signal at concentration 0.37037 (second series)” value [1] was 1.008 and the “normalised signal at concentration 1.11111 (first series)” value [1] was 0.9514. The “normalised signal at concentration 1.11111 (second series)” value [1] was 0.9972, the “normalised signal at concentration 3.33333 (first series)” value [1] was 1.011 and the “normalised signal at concentration 3.33333 (second series)” value [1] was 1.0698. The “normalised signal at concentration 10 (first series)” value [1] was 1.4773, the “normalised signal at concentration 10 (second series)” value [1] was 1.187 and the IC50 [1, 2] was > 10 µM. For the same compound, the “PbLuc_max_inhibition (%)” value ([1]; sheet "2nd round") was 21%, the IC50 (HepG2-A16-CD81EGFP cells; sheet "2nd round") was > 10 µM and the “Tox_max_inhibition (%)” value (HepG2-A16-CD81EGFP cells; sheet "2nd round") was 4.46%.
`COc1ccc2c3c([nH]c2c1)[C@H](CO)N(Cc1ccccc1)CC31CN(C(=O)c2ccccn2)C1` [BRD-K93348054-001-01-9] was tested, and the “normalised signal at concentration 0.000508053 (first series)” value [1] was 1.077, the “normalised signal at concentration 0.000508053 (second series)” value [1] was 1.157 and the “normalised signal at concentration 0.00152416 (first series)” value [1] was 0.9906. For the same compound, the “normalised signal at concentration 0.00152416 (second series)” value [1] was 0.8767, the “normalised signal at concentration 0.00457247 (first series)” value [1] was 0.8635 and the “normalised signal at concentration 0.00457247 (second series)” value [1] was 1.079. The “normalised signal at concentration 0.0137174 (first series)” value [1] was 1.042, the “normalised signal at concentration 0.0137174 (second series)” value [1] was 0.9363 and the “normalised signal at concentration 0.0411523 (first series)” value [1] was 0.9232. The “normalised signal at concentration 0.0411523 (second series)” value [1] was 0.9999, the “normalised signal at concentration 0.123457 (first series)” value [1] was 0.9966 and the “normalised signal at concentration 0.123457 (second series)” value [1] was 1.053. The “normalised signal at concentration 0.37037 (first series)” value [1] was 0.8299, the “normalised signal at concentration 0.37037 (second series)” value [1] was 0.8736 and the “normalised signal at concentration 1.11111 (first series)” value [1] was 0.8048. For the same compound, the “normalised signal at concentration 1.11111 (second series)” value [1] was 0.7, the “normalised signal at concentration 3.33333 (first series)” value [1] was 0.6468 and the “normalised signal at concentration 3.33333 (second series)” value [1] was 0.6466. For the same compound, the “normalised signal at concentration 10 (first series)” value [1] was 0.6758, the “normalised signal at concentration 10 (second series)” value [1] was 0.621 and the IC50 [1, 2] was > 10 µM. The “PbLuc_max_inhibition (%)” value ([1]; sheet "2nd round") was 38%, the IC50 (HepG2-A16-CD81EGFP cells; sheet "2nd round") was > 10 µM and the “Tox_max_inhibition (%)” value (HepG2-A16-CD81EGFP cells; sheet "2nd round") was 18%.
For `COc1ccccc1S(=O)(=O)N(C)C[C@@H]1OCc2ccccc2-c2ccccc2C(=O)N([C@H](C)CO)C[C@@H]1C` [BRD-K88384060-001-01-3], the “normalised signal at concentration 0.000508053 (first series)” value [1] was 0.762, the “normalised signal at concentration 0.000508053 (second series)” value [1] was 0.8443 and the “normalised signal at concentration 0.00152416 (first series)” value [1] was 0.9256. For the same compound, the “normalised signal at concentration 0.00152416 (second series)” value [1] was 0.8309, the “normalised signal at concentration 0.00457247 (first series)” value [1] was 0.8786 and the “normalised signal at concentration 0.00457247 (second series)” value [1] was 0.8245. For the same compound, the “normalised signal at concentration 0.0137174 (first series)” value [1] was 0.8282, the “normalised signal at concentration 0.0137174 (second series)” value [1] was 0.879 and the “normalised signal at concentration 0.0411523 (first series)” value [1] was 0.9277. For the same compound, the “normalised signal at concentration 0.0411523 (second series)” value [1] was 0.9618, the “normalised signal at concentration 0.123457 (first series)” value [1] was 0.8826 and the “normalised signal at concentration 0.123457 (second series)” value [1] was 1.0267. For the same compound, the “normalised signal at concentration 0.37037 (first series)” value [1] was 0.7577, the “normalised signal at concentration 0.37037 (second series)” value [1] was 1.11 and the “normalised signal at concentration 1.11111 (first series)” value [1] was 0.8863. The “normalised signal at concentration 1.11111 (second series)” value [1] was 0.7661, the “normalised signal at concentration 3.33333 (first series)” value [1] was 0.8204 and the “normalised signal at concentration 3.33333 (second series)” value [1] was 0.8055. For the same compound, the “normalised signal at concentration 10 (first series)” value [1] was 0.8642, the “normalised signal at concentration 10 (second series)” value [1] was 0.7248 and the IC50 [1, 2] was > 10 µM. The “PbLuc_max_inhibition (%)” value ([1]; sheet "2nd round") was 28%, the IC50 (HepG2-A16-CD81EGFP cells; sheet "2nd round") was > 10 µM and the “Tox_max_inhibition (%)” value (HepG2-A16-CD81EGFP cells; sheet "2nd round") was 2.77%.
With `C[C@@H]1CCCCO[C@@H](CN(C)S(=O)(=O)c2ccc(F)cc2)[C@H](C)CN([C@H](C)CO)C(=O)c2cc(N(C)C)ccc2O1` [BRD-K17570530-001-01-5] the “normalised signal at concentration 0.000508053 (first series)” value [1] was 0.9121, the “normalised signal at concentration 0.000508053 (second series)” value [1] was 0.9459 and the “normalised signal at concentration 0.00152416 (first series)” value [1] was 0.7511. For the same compound, the “normalised signal at concentration 0.00152416 (second series)” value [1] was 0.8649, the “normalised signal at concentration 0.00457247 (first series)” value [1] was 0.9449 and the “normalised signal at concentration 0.00457247 (second series)” value [1] was 0.9685. For the same compound, the “normalised signal at concentration 0.0137174 (first series)” value [1] was 0.964, the “normalised signal at concentration 0.0137174 (second series)” value [1] was 0.9508 and the “normalised signal at concentration 0.0411523 (first series)” value [1] was 1.052. For the same compound, the “normalised signal at concentration 0.0411523 (second series)” value [1] was 0.9313, the “normalised signal at concentration 0.123457 (first series)” value [1] was 1.16 and the “normalised signal at concentration 0.123457 (second series)” value [1] was 0.9927. The “normalised signal at concentration 0.37037 (first series)” value [1] was 0.8577, the “normalised signal at concentration 0.37037 (second series)” value [1] was 0.9491 and the “normalised signal at concentration 1.11111 (first series)” value [1] was 0.9131. The “normalised signal at concentration 1.11111 (second series)” value [1] was 0.9395, the “normalised signal at concentration 3.33333 (first series)” value [1] was 0.7629 and the “normalised signal at concentration 3.33333 (second series)” value [1] was 0.867. For the same compound, the “normalised signal at concentration 10 (first series)” value [1] was 0.8313, the “normalised signal at concentration 10 (second series)” value [1] was 0.7644 and the IC50 [1, 2] was > 10 µM. For the same compound, the “PbLuc_max_inhibition (%)” value ([1]; sheet "2nd round") was 25%, the IC50 (HepG2-A16-CD81EGFP cells; sheet "2nd round") was > 10 µM and the “Tox_max_inhibition (%)” value (HepG2-A16-CD81EGFP cells; sheet "2nd round") was 4.52%.
With `C[C@H]1CCCCO[C@H](CN(C)S(=O)(=O)c2ccc(F)cc2)[C@@H](C)CN([C@@H](C)CO)C(=O)c2cc(N(C)C)ccc2O1` [BRD-K38571893-001-01-9] the “normalized signal at concentration 10” value ([1]; first series of dose-response columns) was 0.89, the “normalized signal at concentration 0.000508053” value ([1]; first series) was 0.97 and the “normalized signal at concentration 0.00152416” value ([1]; first series) was 0.98. For the same compound, the “normalized signal at concentration 0.00457247” value ([1]; first series) was 0.90, the “normalized signal at concentration 0.0137174” value ([1]; first series) was 0.78 and the “normalized signal at concentration 0.0411523” value ([1]; first series) was 1.07. For the same compound, the “normalized signal at concentration 0.123457” value ([1]; first series) was 1.18, the “normalized signal at concentration 0.37037” value ([1]; first series) was 0.95 and the “normalized signal at concentration 1.11111” value ([1]; first series) was 0.97. The “normalized signal at concentration 3.33333” value ([1]; first series) was 0.87, the IC50 ([1]; sheet 2nd round, dose response) was > 10 µM and the “normalized signal at concentration 10” value ([1]; second series of dose-response columns) was 0.80. The “normalized signal at concentration 0.000508053” value ([1]; second series) was 1.11, the “normalized signal at concentration 0.00152416” value ([1]; second series) was 0.83 and the “normalized signal at concentration 0.00457247” value ([1]; second series) was 0.98. For the same compound, the “normalized signal at concentration 0.0137174” value ([1]; second series) was 1.18, the “normalized signal at concentration 0.0411523” value ([1]; second series) was 1.02 and the “normalized signal at concentration 0.123457” value ([1]; second series) was 1.25. The “normalized signal at concentration 0.37037” value ([1]; second series) was 0.98, the “normalized signal at concentration 1.11111” value ([1]; second series) was 1.04 and the “normalized signal at concentration 3.33333” value ([1]; second series) was 0.97. The “PbLuc_max_inhibition (%)” value [1, 3] was 22%, the IC50 (HepG2-A16-CD81EGFP cells; sheet 2nd round) was > 10 µM and the “Tox_max_inhibition (%)” value (HepG2-A16-CD81EGFP cells; [3]) was -2.16%.
